# Biological target: purified human, His-tagged PRC2 complex (Homo sapiens (Human), UniProt O75530)
# Test: Hot Spot HMT assay, inhibition of PRC2 enzymatic activity
# Type: biochemical
# Conditions: 10 nM PRC2 complex, 1 μM 3H-SAM, core histone H3, 10-point dose-response
# From the text: The assay uses purified human, His-tagged PRC2 complex, including N-terminal His-tagged EZH2 enzyme, N-terminal Flag-tagged embryonic ectoderm development protein (EED), N-terminal His-tagged suppressor of zeste 12 (SUZ12), N-terminal His-tagged AEBP2, and N-terminal His-tagged RbAp48. In this assay, the transfer of the tritiated methyl group from radiolabeled S-adenosyl methionine (SAM) to purified core histone protein by EZH2 is quantitated after filtration to determine the activity of the core PRC2 complex in the presence and absence of compound.
# The initial starting concentration for the serial dilutions of each compound was 1.0 μM. […] SAH (S-(5-adenosyl)-L-homocysteine) was used as a positive control for assay validation.
# An aliquot of each serial dilution of test compound was added to deep 384 well plate using Acoustic Technology instrument (Echo 550, LabCyte) containing reaction buffer (50 mM Tris-HCl (pH 8.)), 0.01% Brij35, 1 mM EDTA, 1 mM DTT, 1 mM PMSF and 1% DMSO), 10 nM purified PRC2 complex and 0.05 mg/ml core histone H3 in a 5 μl volume. The reaction was mixed gently and then pre-incubated for 20 min at 30° C. The enzymatic reaction was initiated by adding 1 μM S-Adenosyl-L-[methyl-^3H]methionine and incubated for 1 hr at 30° C. After 1 hr, the reaction product was detected using a filter binding method and the amount of tritiated H3 core histone was quantitated using a scintillation counter. […] Key: A=<100 nM; B=>100 nM-<500 nM; and C=>500 nM.
# purified human, His-tagged PRC2 complex, sequence (O75530 whole entry): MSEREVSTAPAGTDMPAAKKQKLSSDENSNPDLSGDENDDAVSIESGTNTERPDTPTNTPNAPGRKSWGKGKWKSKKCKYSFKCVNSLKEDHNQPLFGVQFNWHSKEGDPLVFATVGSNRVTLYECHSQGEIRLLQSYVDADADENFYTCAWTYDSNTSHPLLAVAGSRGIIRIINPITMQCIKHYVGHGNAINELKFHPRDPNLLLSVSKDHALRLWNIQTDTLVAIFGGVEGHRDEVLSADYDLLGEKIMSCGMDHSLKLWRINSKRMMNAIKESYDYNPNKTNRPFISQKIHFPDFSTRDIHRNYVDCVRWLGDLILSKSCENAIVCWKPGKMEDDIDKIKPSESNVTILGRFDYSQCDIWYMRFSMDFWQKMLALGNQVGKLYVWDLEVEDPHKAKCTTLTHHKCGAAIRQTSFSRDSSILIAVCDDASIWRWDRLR
# purified human, His-tagged PRC2 complex, sequence (Q15910 whole entry partner): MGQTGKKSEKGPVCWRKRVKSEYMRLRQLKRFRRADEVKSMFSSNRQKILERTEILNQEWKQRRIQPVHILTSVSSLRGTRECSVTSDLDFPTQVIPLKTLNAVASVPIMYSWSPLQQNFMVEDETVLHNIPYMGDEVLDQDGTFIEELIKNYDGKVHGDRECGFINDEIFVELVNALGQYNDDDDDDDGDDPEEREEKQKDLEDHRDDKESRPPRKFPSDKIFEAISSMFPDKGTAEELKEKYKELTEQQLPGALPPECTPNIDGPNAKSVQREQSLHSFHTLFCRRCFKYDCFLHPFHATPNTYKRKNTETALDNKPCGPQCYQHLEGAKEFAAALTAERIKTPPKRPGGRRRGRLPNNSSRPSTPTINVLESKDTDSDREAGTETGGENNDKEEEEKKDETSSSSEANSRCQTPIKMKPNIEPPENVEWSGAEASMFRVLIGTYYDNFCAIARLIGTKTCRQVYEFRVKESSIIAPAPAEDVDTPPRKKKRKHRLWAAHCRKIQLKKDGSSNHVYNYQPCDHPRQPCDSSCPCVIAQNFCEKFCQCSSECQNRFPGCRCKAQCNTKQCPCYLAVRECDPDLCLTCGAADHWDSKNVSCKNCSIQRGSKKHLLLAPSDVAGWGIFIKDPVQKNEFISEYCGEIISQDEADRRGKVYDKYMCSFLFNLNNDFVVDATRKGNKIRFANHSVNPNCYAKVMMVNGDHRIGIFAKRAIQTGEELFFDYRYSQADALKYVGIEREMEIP
# purified human, His-tagged PRC2 complex, sequence (Q15022 whole entry partner): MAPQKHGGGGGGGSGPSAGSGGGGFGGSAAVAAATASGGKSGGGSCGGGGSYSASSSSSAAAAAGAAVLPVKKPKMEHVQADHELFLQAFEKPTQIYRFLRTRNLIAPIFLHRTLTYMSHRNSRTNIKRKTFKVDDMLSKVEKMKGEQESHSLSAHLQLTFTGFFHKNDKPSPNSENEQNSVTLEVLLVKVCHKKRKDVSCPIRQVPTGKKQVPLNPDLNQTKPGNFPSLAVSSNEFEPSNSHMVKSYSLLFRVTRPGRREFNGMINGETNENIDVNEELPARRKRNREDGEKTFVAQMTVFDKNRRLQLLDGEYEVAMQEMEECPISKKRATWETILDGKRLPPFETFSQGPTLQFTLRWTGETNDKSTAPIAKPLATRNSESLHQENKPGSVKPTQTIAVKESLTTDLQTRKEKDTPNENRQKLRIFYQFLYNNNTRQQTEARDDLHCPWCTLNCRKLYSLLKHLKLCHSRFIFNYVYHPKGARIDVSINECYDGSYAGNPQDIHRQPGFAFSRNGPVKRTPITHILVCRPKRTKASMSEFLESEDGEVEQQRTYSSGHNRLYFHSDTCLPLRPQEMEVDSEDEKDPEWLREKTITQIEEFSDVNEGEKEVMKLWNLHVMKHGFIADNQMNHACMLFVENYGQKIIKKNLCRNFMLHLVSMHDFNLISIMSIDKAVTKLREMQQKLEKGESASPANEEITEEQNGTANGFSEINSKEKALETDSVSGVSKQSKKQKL
# purified human, His-tagged PRC2 complex, sequence (Q6ZN18 whole entry partner): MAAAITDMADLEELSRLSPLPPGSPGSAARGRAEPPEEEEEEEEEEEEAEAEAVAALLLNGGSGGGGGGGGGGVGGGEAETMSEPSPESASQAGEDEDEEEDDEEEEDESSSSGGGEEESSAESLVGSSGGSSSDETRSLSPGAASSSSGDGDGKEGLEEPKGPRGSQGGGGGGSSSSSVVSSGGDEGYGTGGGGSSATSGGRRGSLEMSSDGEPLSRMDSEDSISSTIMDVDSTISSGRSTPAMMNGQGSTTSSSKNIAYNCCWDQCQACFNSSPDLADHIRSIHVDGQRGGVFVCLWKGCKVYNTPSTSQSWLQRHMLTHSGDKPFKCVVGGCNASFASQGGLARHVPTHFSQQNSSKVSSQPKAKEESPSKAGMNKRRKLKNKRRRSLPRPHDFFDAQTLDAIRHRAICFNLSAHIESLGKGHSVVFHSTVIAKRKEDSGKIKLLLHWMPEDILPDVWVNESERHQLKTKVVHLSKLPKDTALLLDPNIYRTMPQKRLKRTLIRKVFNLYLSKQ
# purified human, His-tagged PRC2 complex, sequence (Q09028 whole entry partner): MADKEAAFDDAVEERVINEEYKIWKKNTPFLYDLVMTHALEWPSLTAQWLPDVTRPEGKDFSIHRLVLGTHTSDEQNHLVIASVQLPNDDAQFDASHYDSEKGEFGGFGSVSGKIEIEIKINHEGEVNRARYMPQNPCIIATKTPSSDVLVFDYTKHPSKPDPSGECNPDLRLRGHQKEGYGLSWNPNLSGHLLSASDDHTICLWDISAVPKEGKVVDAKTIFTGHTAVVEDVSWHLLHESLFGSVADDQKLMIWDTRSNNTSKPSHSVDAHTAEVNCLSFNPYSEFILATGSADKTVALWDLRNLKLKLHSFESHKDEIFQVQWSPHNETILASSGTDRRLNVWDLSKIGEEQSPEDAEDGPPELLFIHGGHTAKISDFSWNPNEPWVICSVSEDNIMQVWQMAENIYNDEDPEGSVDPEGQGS
row,SMILES,IC50
1,"COc1cc(C)c(-c2cnc(NCc3c(F)ccc4c3CCO4)n3cc(C(N)=O)nc23)cn1 [Example 14, 5-(((5-fluoro-2,3-dihydrobenzofuran-4-yl)methyl)amino)-8-(6-methoxy-4-methylpyridin-3-yl)imidazo[1,2-c]pyrimidine-2-carboxamide]",100 to 500 nM
2,"Cc1nc(C2CC2)ncc1-c1cnc(NCc2c(F)ccc3c2CCO3)n2cc(C(N)=O)nc12 [Example 15, 8-(2-cyclopropyl-4-methylpyrimidin-5-yl)-5-(((5-fluoro-2,3-dihydrobenzofuran-4-yl)methyl)amino)imidazo[1,2-c]pyrimidine-2-carboxamide]",100 to 500 nM
3,"Cc1c(-c2cnc(NCc3c(F)ccc4c3CCO4)n3cc(C(N)=O)nc23)cnn1C(C)C [Example 16, 5-(((5-fluoro-2,3-dihydrobenzofuran-4-yl)methyl)amino)-8-(1-isopropyl-5-methyl-1H-pyrazol-4-yl)imidazo[1,2-c]pyrimidine-2-carboxamide]",< 100 nM
4,"Cc1cn(-c2cnc(NCc3c(F)ccc4c3CCO4)n3cc(C(N)=O)nc23)cn1 [Example 17, 5-(((5-fluoro-2,3-dihydrobenzofuran-4-yl)methyl)amino)-8-(4-methyl-1H-imidazol-1-yl)imidazo[1,2-c]pyrimidine-2-carboxamide]",100 to 500 nM
5,"Cc1cc(-c2cnc(NCc3c(F)ccc4occc34)n3cc(C(N)=O)nc23)n(C)n1 [Example 18, 8-(1,3-dimethyl-1H-pyrazol-5-yl)-5-(((5-fluorobenzofuran-4-yl)methyl)amino)imidazo[1,2-c]pyrimidine-2-carboxamide]",< 100 nM
6,"Cc1cc(-c2cnc(NCc3cccc4c3CCO4)n3cc(C(N)=O)nc23)n(C)n1 [Example 19, 5-(((2,3-dihydrobenzofuran-4-yl)methyl)amino)-8-(1,3-dimethyl-1H-pyrazol-5-yl)imidazo[1,2-c]pyrimidine-2-carboxamide]",< 100 nM
7,"CNC(=O)c1cn2c(NCc3c(F)ccc4c3CCO4)ncc(-c3cc(C)nn3C)c2n1 [Example 20, 8-(1,3-dimethyl-1H-pyrazol-5-yl)-5-(((5-fluoro-2,3-dihydrobenzofuran-4-yl)methyl)amino)-N-methylimidazo[1,2-c]pyrimidine-2-carboxamide]",< 100 nM
8,"Cc1cc(-c2cnc(NCc3c(F)ccc4c3CCO4)n3cc(C(=O)N(C)C)nc23)n(C)n1 [Example 21, 8-(1,3-dimethyl-1H-pyrazol-5-yl)-5-(((5-fluoro-2,3-dihydrobenzofuran-4-yl)methyl)amino)-N,N-dimethylimidazo[1,2-c]pyrimidine-2-carboxamide]",> 500 nM
9,"Cc1ncccc1-c1cnc(NCc2c(F)ccc3occc23)n2cc(C#N)nc12 [Example 22, 5-(((5-fluorobenzofuran-4-yl)methyl)amino)-8-(2-methylpyridin-3-yl)imidazo[1,2-c]pyrimidine-2-carbonitrile]",100 to 500 nM
10,"Cc1nn(C(C)C)cc1-c1cnc(NCc2c(F)ccc3c2CCO3)n2cc(C#N)nc12 [Example 23, 5-(((5-fluoro-2,3-dihydrobenzofuran-4-yl)methyl)amino)-8-(1-isopropyl-3-methyl-1H-pyrazol-4-yl)imidazo[1,2-c]pyrimidine-2-carbonitrile]",100 to 500 nM
11,"COc1cc(C)c(-c2cnc(NCc3c(F)ccc4c3CCO4)n3cc(C#N)nc23)cn1 [Example 24, 5-(((5-fluoro-2,3-dihydrobenzofuran-4-yl)methyl)amino)-8-(6-methoxy-4-methylpyridin-3-yl)imidazo[1,2-c]pyrimidine-2-carbonitrile]",100 to 500 nM
12,"Cc1nc(C2CC2)ncc1-c1cnc(NCc2c(F)ccc3c2CCO3)n2cc(C#N)nc12 [Example 25, 8-(2-cyclopropyl-4-methylpyrimidin-5-yl)-5-(((5-fluoro-2,3-dihydrobenzofuran-4-yl)methyl)amino)imidazo[1,2-c]pyrimidine-2-carbonitrile]",100 to 500 nM
13,"Cc1c(-c2cnc(NCc3c(F)ccc4c3CCO4)n3cc(C#N)nc23)cnn1C(C)C [Example 26, 5-(((5-fluoro-2,3-dihydrobenzofuran-4-yl)methyl)amino)-8-(1-isopropyl-5-methyl-1H-pyrazol-4-yl)imidazo[1,2-c]pyrimidine-2-carbonitrile]",100 to 500 nM
14,"Cc1cc(-c2cnc(NCc3cccc4c3OCO4)n3cc(C#N)nc23)n(C)n1 [Example 27, 5-((benzo[d][1,3]dioxol-4-ylmethyl)amino)-8-(1,3-dimethyl-1H-pyrazol-5-yl)imidazo[1,2-c]pyrimidine-2-carbonitrile]",> 500 nM
15,"Cc1cc(-c2cnc(NCc3c(Cl)ccc4c3CCO4)n3cc(C#N)nc23)n(C)n1 [Example 29, 5-(((5-chloro-2,3-dihydrobenzofuran-4-yl)methyl)amino)-8-(1,3-dimethyl-1H-pyrazol-5-yl)imidazo[1,2-c]pyrimidine-2-carbonitrile]",> 500 nM
16,"Cc1cc(-c2cnc(NCc3cccc4c3CCO4)n3cc(C#N)nc23)n(C)n1 [Example 30, 5-(((2,3-dihydrobenzofuran-4-yl)methyl)amino)-8-(1,3-dimethyl-1H-pyrazol-5-yl)imidazo[1,2-c]pyrimidine-2-carbonitrile]",100 to 500 nM
17,"CN(C)C(=O)c1ccc(-c2cnc(NCc3c(F)ccc4c3CCO4)n3cc(C#N)nc23)c(Cl)c1 [Example 31, 3-chloro-4-(2-cyano-5-(((5-fluoro-2,3-dihydrobenzofuran-4-yl)methyl)amino)imidazo[1,2-c]pyrimidin-8-yl)-N,N-dimethylbenzamide]",< 100 nM
18,"CN(C)Cc1ccc(-c2cnc(NCc3c(F)ccc4c3CCO4)n3cc(C#N)nc23)c(Cl)c1 [Example 33, 8-(2-chloro-4-((dimethylamino)methyl)phenyl)-5-(((5-fluoro-2,3-dihydrobenzofuran-4-yl)methyl)amino)imidazo[1,2-c]pyrimidine-2-carbonitrile]",< 100 nM
19,"CN(C)C(=O)c1ccc(-c2cnc(NCc3c(F)ccc4c3CCO4)n3cc(C#N)nc23)c(Cl)c1F [Example 34, 3-chloro-4-(2-cyano-5-(((5-fluoro-2,3-dihydrobenzofuran-4-yl)methyl)amino)imidazo[1,2-c]pyrimidin-8-yl)-2-fluoro-N,N-dimethylbenzamide]",< 100 nM
20,"CN(C)C(=O)c1cc(Cl)c(-c2cnc(NCc3c(F)ccc4c3CCO4)n3cc(C#N)nc23)cc1F [Example 35, 5-chloro-4-(2-cyano-5-(((5-fluoro-2,3-dihydrobenzofuran-4-yl)methyl)amino)imidazo[1,2-c]pyrimidin-8-yl)-2-fluoro-N,N-dimethylbenzamide]",< 100 nM
21,"CN(C)C(=O)c1ccc(-c2cnc(NCc3c(F)ccc4c3CCO4)n3cc(C#N)nc23)cc1F [Example 36, 4-(2-cyano-5-(((5-fluoro-2,3-dihydrobenzofuran-4-yl)methyl)amino)imidazo[1,2-c]pyrimidin-8-yl)-2-fluoro-N,N-dimethylbenzamide]",< 100 nM
22,"CN(C)Cc1ccc(-c2cnc(NCc3c(F)ccc4c3CCO4)n3cc(C#N)nc23)c(F)c1F [Example 37, 8-(4-((dimethylamino)methyl)-2,3-difluorophenyl)-5-(((5-fluoro-2,3-dihydrobenzofuran-4-yl)methyl)amino)imidazo[1,2-c]pyrimidine-2-carbonitrile]",< 100 nM

# Reference: patent publication US20240398811A1, “PRC2 INHIBITORS FOR USE IN TREATING BLOOD DISORDERS” (ORIC Pharmaceuticals, Inc., priority 2021, published 2024)
